# Assays:
# RAW264.7 [1] = assay: Antiinflammatory activity in mouse RAW264.7 cells assessed as inhibition of LPS-stimulated NO production at 10 uM by ELISA relative to control; format: functional
# RAW264.7 [2] = assay: Antiinflammatory activity in mouse RAW264.7 cells assessed as inhibition of LPS-stimulated PGE2 production by ELISA; format: functional, cell-based
# RAW264.7 [3] = assay: Antiinflammatory activity in mouse RAW264.7 cells assessed as inhibition of LPS-stimulated NO production by ELISA; format: functional, cell-based
# RAW264.7 [4] = assay: Cytotoxicity against mouse RAW264.7 cells by MTT assay; format: cell-based
# [5] = Cytotoxicity against LPS-stimulated mouse RAW264.7 cells assessed as cell viability at 10 uM by MTT assay (reference value: 100.01 +/- 0.05 %); format: cell-based; conditions: LPS-stimulated RAW264.7 cells, read-out: Activity
# RAW264.7 [6] = assay: Antiinflammatory activity in mouse RAW264.7 cells assessed as inhibition of LPS-stimulated NO production at 20 uM by ELISA relative to control; format: functional
# [7] = Cytotoxicity against LPS-stimulated mouse RAW264.7 cells assessed as cell viability at 20 uM by MTT assay (reference value: 100.01 +/- 0.05 %); format: cell-based; conditions: LPS-stimulated RAW264.7 cells, read-out: Activity
# RAW264.7 [8] = assay: Antiinflammatory activity in mouse RAW264.7 cells assessed as inhibition of LPS-stimulated NO production at 5 uM by ELISA relative to control; format: functional
# [9] = Cytotoxicity against LPS-stimulated mouse RAW264.7 cells assessed as cell viability at 5 uM by MTT assay (reference value: 100.01 +/- 0.05 %); format: cell-based; conditions: LPS-stimulated RAW264.7 cells, read-out: Activity
Structure (SMILES),IC50 (RAW264.7 [2]),inhibition at 20 µM (RAW264.7 [6]),viability at 20 µM [7],also measured
O=c1cc(-c2ccc(O)c(O)c2)oc2ccccc12,0.99 µM,,,inhibition at 10 µM (RAW264.7 [1]): 64.3%; IC50 (RAW264.7 [3]): 6.29 µM; IC50 (RAW264.7 [4]): 45.1 µM; viability at 10 µM [5]: 93.6%
COc1cc(OC)c2c(=O)cc(-c3ccc(OC)c(OC)c3)oc2c1 [TETRAMETHYLLUTEOLIN],3.13 µM,37.6%,109%,IC50 (RAW264.7 [3]): 32.5 µM; IC50 (RAW264.7 [4]): 73.9 µM
O=c1cc(-c2cccc(O)c2)oc2ccccc12,,17.7%,97%,
COc1cc(OC)c2c(=O)cc(-c3ccccc3)oc2c1 [CHRYSIN DIMETHYL ETHER],7.43 µM,31.5%,134%,IC50 (RAW264.7 [3]): 33.2 µM; IC50 (RAW264.7 [4]): 65.6 µM
O=c1cc(-c2ccccc2)oc2ccc([N+](=O)[O-])cc12,,11.9%,90.8%,
CC(C)(C)C(=O)Oc1ccc2c(=O)cc(-c3ccccc3)oc2c1,,28.6%,102%,
O=c1cc(-c2ccc(C(F)(F)F)cc2)oc2ccccc12,,10.7%,87.9%,
C[Si](C)(C)c1ccc(-c2cc(=O)c3ccccc3o2)cc1,,18%,95%,
COc1ccc(-c2cc(=O)c3c(OC)cc(OC)cc3o2)cc1 [TRIMETHYLAPIGENIN],,27.2%,103%,
O=c1cc(-c2ccc(-c3cccc4ccccc34)cc2)oc2ccccc12,,11.6%,99.8%,
COc1cccc(-c2cc(=O)c3ccccc3o2)c1,,15.7%,102%,
COc1ccc2c(=O)cc(-c3ccccc3)oc2c1 [7-METHOXYFLAVONE],,17.7%,133%,
COc1ccc(-c2cc(=O)c3ccccc3o2)cc1 [4'-METHOXYFLAVONE],,8.76%,111%,
COc1cc(OC)c2c(=O)cc(-c3ccc(O)c(O)c3)oc2c1,14 µM,,,IC50 (RAW264.7 [3]): 34.8 µM; IC50 (RAW264.7 [4]): > 200 µM
"COc1ccc(-c2cc(=O)c3ccccc3o2)cc1OC [3',4'-DIMETHOXYFLAVONE]",6.46 µM,33.3%,117%,IC50 (RAW264.7 [3]): 34.5 µM; IC50 (RAW264.7 [4]): 39.7 µM
CS(=O)(=O)Nc1ccc([N+](=O)[O-])cc1OC1CCCCC1 [NS-398],6.74 µM,,,
O=c1cc(-c2ccc(Cl)cc2)oc2ccccc12,,5.07%,85.8%,
O=c1cc(-c2ccc(O)c(O)c2)oc2cc(O)cc(O)c12 [LUTEOLIN],2.87 µM,,,IC50 (RAW264.7 [3]): 5.06 µM; IC50 (RAW264.7 [4]): 18.9 µM; inhibition at 5 µM (RAW264.7 [8]): 19.5%; viability at 5 µM [9]: 98%
O=c1cc(-c2ccc(F)cc2)oc2ccccc12,,21.2%,92.4%,
O=c1cc(-c2ccc(O)cc2)oc2ccccc12,3.77 µM,37.5%,96.1%,IC50 (RAW264.7 [3]): 48.3 µM; IC50 (RAW264.7 [4]): 145 µM
Cc1ccc2oc(-c3ccccc3)cc(=O)c2c1 [6-METHYLFLAVONE],,17.4%,116%,
O=c1cc(-c2ccccc2)oc2ccc(F)cc12,,20.4%,75.2%,
O=c1cc(-c2ccccc2)oc2cc3c(cc12)OCO3,,20.9%,119%,
CC(C)(C)c1ccc(-c2cc(=O)c3ccccc3o2)cc1,,19.5%,99.1%,
COc1ccc2oc(-c3ccccc3)cc(=O)c2c1 [6-METHOXYFLAVONE],,22.2%,116%,
O=c1cc(-c2ccccc2)oc2ccc(Cl)cc12 [6-CHLOROFLAVONE],,26.1%,91.4%,
O=c1cc(-c2ccccc2)oc2ccccc12 [FLAVONE],,16.3%,95.4%,
COc1ccc(-c2cc(=O)c3ccccc3o2)c(OC)c1,,20.9%,107%,
CC(C)Cc1ccc(C(C)C(=O)O)cc1 (centres undefined) [IBUPROFEN],0.39 µM,,,IC50 (RAW264.7 [3]): 1480 µM; IC50 (RAW264.7 [4]): 3310 µM
O=c1cc(-c2ccc(-c3ccccc3)cc2)oc2ccccc12,,4.45%,92.3%,
